# Test results from ChEMBL document CHEMBL1201862, “PubChem BioAssay data set” (2004).
# The source made the active and inactive calls.
# Key:
# Caspase-6 = Caspase-6 (Homo sapiens, UniProt P55212); assay: inhibition of CASP6 peptide cleavage – biochemical, VEID-R110 fluorescence, cherry-pick, dose response (AID 720632)
# Caspase-7 = Caspase-7 (Homo sapiens, UniProt P55210); assay: caspase-7 enzyme inhibition, selectivity check – biochemical, DEVD-R110 fluorescence, cherry-pick, selectivity assay for caspase-6 inhibitor project, dose response (AID 743295); assay type: functional
# [1] = non-specific 3'UTR reporter inhibition in Clone20-Shn3RL – cell-based, Renilla luciferase, cherry-picked, counter-screen for Shn3 inhibitor project, dose response (AID 624133); assay type: functional
# [2] = Shn3 3'UTR reporter signal decrease – cell-based, Clone20 osteoblasts, firefly luciferase, cherry-pick, set 2, Schnurri-3 inhibitor project, dose response (AID 720490); assay type: functional;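 also: actives lower the luminescence signal as inhibitors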
# [3] = reduction of Shn3 3'UTR-driven luciferase in osteoblasts – cell-based, Clone20 osteoblasts, firefly luciferase, cherry-picked, dose response (AID 624132); assay type: functional;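 also: firefly luciferase luminescence from reporter carrying the Shn3 3'UTR in osteoblasts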
# [4] = loss of viability in HepG2 cells – cell-based, CellTiter-Glo, cherry-picked, cytotoxicity control for Shn3 inhibitor project, dose response (AID 624134); assay type: functional
# [5] = molecular target: T1, Alkaline phosphatase, tissue-nonspecific isozyme (Homo sapiens, UniProt P05186); assay: TNAP enzyme inhibition by screening hits, dose response, selectivity assay for mouse IAP inhibitor project, biochemical, human TNAP, uHTS hits (AID 488906); assay type: functional
# T1 sequence (P05186 whole entry): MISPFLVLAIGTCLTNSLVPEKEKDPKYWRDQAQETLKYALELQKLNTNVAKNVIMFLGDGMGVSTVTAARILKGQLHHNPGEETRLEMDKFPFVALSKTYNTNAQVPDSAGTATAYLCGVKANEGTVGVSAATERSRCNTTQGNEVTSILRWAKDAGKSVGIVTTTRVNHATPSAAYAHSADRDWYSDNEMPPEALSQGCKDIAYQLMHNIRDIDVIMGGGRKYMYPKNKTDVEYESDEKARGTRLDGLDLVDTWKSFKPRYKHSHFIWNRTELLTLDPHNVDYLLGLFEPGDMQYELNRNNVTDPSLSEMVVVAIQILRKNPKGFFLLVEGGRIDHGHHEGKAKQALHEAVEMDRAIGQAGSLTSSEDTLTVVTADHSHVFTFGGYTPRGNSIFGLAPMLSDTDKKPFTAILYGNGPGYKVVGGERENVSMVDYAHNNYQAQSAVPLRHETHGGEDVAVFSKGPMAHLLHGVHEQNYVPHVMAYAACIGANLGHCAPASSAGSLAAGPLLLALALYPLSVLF
# ORF 73 = ORF 73 (Human herpesvirus 8, UniProt O40947); assay: KSHV LANA DNA-binding disruption – biochemical, fluorescence polarization, cherry-picked samples, dose response (AID 504725); design: species or system Human gammaherpesvirus 8;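 also: fluorescence polarization of a labeled DNA duplex reporting LANA DNA binding; potency is for inhibitors that block LANA binding to the DNA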
# [6] = molecular target: Intestinal-type alkaline phosphatase (Homo sapiens, UniProt P09923); assay: inhibition of human intestinal alkaline phosphatase – biochemical, dose response (AID 488876); assay type: functional
# [7] = molecular target: 1-phosphatidylinositol 4,5-bisphosphate phosphodiesterase beta-3 (Homo sapiens, UniProt Q01970); assay: Fluorescence-based biochemical high throughput dose response assay to identify inhibitors of phospholipase C isozymes (PLC-B3).
# [8] = molecular target: Histone-lysine N-methyltransferase NSD2 (Homo sapiens, UniProt O96028); assay type: biochemical
# [9] = molecular target: Induced myeloid leukemia cell differentiation protein Mcl-1 (Homo sapiens, UniProt Q07820); assay type: functional
# [10] = molecular target: 1-phosphatidylinositol 4,5-bisphosphate phosphodiesterase gamma-1 (Homo sapiens, UniProt P19174); assay: Counterscreen for inhibitors of phospholipase C isozymes (PLC-B3): Fluorescence-based biochemical high throughput dose response assay to identify inhibitors of phospholipase C isozymes (PLC-gamma1).
# [11] = molecular target: Intestinal-type alkaline phosphatase (Mus musculus, UniProt P24822); assay: PubChem AID 488785; assay type: functional
# [12] = molecular target: Tyrosyl-DNA phosphodiesterase 2 (Homo sapiens, UniProt O95551); assay: potency against TDP2 phosphodiesterase activity – biochemical, epi absorbance, IC50, dose response (AID 743297)
# Protein RecA = molecular target: T2, Protein RecA (Mycobacterium tuberculosis, UniProt P9WHJ3); assay: Fluorescence Cell-Free Homogeneous Dose Retest to Identify Inhibitors of RecA-Intein Splicing Activity. [Related pubchem assays (depositor defined):AID2097, AID2223, AID489010, AID492950]; assay type: functional
# T2 sequence (P9WHJ3 whole entry): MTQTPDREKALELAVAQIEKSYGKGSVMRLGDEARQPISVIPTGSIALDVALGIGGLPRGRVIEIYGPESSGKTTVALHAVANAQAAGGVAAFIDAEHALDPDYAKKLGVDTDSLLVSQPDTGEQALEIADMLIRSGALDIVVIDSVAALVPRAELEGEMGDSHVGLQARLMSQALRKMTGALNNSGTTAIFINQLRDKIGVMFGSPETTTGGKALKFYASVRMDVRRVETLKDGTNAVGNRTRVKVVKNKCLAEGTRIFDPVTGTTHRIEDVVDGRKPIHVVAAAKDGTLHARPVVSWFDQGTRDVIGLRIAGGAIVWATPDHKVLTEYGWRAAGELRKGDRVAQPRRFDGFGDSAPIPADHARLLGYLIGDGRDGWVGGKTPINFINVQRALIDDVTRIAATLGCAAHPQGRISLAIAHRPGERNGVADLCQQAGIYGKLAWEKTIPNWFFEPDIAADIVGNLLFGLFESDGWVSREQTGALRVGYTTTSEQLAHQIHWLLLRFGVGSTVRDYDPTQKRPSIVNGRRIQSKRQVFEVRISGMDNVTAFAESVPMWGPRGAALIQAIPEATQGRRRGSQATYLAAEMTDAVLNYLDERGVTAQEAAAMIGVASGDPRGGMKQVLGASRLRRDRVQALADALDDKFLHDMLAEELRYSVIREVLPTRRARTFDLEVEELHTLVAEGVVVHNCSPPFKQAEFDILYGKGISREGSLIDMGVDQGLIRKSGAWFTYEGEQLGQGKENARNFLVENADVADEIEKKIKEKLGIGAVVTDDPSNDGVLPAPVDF
# [13] = molecular target: T3, Apoptotic protease-activating factor 1 (Homo sapiens, UniProt O14727); assay type: functional
# T3 sequence (O14727 whole entry): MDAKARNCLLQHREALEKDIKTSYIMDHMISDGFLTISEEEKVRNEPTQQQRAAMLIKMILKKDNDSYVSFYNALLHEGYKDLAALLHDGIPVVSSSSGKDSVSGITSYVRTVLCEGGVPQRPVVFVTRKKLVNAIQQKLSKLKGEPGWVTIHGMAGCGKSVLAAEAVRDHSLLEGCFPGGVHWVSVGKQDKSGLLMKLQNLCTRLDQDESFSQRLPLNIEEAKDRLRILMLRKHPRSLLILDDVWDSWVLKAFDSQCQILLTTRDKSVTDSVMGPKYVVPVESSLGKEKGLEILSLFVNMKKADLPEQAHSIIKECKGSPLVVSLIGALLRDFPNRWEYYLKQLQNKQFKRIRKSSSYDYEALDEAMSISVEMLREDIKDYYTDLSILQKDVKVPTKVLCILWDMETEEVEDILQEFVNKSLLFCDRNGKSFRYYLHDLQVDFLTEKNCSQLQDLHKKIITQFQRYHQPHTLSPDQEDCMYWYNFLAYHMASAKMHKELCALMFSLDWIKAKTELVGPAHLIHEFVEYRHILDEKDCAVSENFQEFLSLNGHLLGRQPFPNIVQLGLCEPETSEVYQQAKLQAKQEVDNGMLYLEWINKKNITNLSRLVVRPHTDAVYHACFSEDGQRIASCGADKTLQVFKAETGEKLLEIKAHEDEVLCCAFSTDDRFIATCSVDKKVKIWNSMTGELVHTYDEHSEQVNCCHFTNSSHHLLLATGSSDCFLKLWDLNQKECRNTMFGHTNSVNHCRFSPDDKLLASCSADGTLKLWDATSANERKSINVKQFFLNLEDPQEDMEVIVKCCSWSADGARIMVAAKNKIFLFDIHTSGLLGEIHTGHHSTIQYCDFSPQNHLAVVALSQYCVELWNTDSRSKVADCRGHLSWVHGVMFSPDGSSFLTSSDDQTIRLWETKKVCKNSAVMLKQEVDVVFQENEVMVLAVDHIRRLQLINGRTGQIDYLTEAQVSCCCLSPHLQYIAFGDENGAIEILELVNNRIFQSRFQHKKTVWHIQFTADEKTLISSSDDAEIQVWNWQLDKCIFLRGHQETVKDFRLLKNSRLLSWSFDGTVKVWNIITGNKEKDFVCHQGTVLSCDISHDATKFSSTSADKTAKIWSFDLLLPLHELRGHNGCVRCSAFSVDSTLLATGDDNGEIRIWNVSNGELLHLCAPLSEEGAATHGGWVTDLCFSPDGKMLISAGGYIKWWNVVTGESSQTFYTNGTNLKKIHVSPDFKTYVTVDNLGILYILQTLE
# [14] = molecular target: T4, Replicative DNA helicase DnaB (Mycobacterium tuberculosis, UniProt P9WMR3); assay: DnaB intein splicing inhibitors, dose response, biochemical, cell-free fluorescence (AID 449749); assay type: functional
# T4 sequence (P9WMR3 whole entry): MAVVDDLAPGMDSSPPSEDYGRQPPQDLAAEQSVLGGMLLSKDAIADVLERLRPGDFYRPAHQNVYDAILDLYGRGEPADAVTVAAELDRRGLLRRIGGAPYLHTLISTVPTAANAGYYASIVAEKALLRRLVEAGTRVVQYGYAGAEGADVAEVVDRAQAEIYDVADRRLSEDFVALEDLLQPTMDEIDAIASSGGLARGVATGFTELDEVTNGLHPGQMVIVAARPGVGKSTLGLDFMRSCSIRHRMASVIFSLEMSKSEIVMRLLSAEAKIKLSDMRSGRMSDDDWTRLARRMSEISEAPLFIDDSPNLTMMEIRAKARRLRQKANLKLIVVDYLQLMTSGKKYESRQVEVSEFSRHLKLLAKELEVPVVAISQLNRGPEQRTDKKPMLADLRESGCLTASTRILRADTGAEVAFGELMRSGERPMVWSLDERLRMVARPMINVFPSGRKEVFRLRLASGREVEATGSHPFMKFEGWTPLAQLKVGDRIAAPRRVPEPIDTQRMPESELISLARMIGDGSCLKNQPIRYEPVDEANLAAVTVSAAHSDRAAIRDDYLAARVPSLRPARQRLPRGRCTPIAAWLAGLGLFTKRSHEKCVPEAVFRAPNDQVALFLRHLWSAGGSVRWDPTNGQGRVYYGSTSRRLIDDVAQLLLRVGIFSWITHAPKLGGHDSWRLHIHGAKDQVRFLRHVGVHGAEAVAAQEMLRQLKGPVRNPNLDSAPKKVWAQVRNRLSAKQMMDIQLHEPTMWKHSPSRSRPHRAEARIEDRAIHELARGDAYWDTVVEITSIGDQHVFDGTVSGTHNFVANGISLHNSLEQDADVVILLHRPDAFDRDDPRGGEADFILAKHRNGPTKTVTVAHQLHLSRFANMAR
# [15] = viability loss in MITF-independent A375 cells – cell-based, CellTiter-Glo luminescence, dry powder, set 2, counter-screen for MITF inhibitor project, dose response (AID 624489); assay type: functional; settings: A-375;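 also: actives are compounds lowering A375 viability meaning general cytotoxicity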
# [16] = mouse embryonic fibroblast toxicity – cell-based, plate reader, dry powder, set 2, cytotoxicity control, dose response (AID 652280); assay type: functional; settings: NIH3T3
# [17] = T. cruzi growth inhibition in host cells, dose response, cell-based, plate reader, dry powder, set 2 (AID 652275); assay type: functional
# [18] = CTGF mRNA reduction in DLD1 cells – cell-based, DLD1 colon cancer, RT-qPCR, cherry-pick, dose response (AID 1053122); assay type: functional; settings: Cancer cell lines
# [19] = HEK293T viability loss – cell-based, ATP luminescence, dry powder, Set6, cytotoxicity control, dose response (AID 743142); assay type: functional; settings: HEK293
# [20] = viability loss in A549 lung cancer cells – cell-based, CellTiter-Glo luminescence, dry powder, set 3, cytotoxicity control, dose response (AID 743146); assay type: functional
# [21] = liver cell line viability loss – HepG2, luminescence plate reader, powder samples, set 2, cytotoxicity control, dose response (AID 651860); assay type: functional, cell-based
# Caspase-7, sequence (P55210 24-198 limits assumed): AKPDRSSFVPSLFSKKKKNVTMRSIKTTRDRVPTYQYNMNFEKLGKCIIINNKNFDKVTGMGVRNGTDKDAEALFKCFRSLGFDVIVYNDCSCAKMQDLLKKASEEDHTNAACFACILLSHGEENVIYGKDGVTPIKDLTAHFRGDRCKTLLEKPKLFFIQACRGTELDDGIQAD
# Caspase-7, sequence (P55210 207-303 limits assumed): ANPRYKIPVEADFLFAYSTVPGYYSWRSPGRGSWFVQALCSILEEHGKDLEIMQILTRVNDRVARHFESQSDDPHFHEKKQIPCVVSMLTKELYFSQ
# Tyrosyl-DNA phosphodiesterase 2, sequence (O95551 whole entry): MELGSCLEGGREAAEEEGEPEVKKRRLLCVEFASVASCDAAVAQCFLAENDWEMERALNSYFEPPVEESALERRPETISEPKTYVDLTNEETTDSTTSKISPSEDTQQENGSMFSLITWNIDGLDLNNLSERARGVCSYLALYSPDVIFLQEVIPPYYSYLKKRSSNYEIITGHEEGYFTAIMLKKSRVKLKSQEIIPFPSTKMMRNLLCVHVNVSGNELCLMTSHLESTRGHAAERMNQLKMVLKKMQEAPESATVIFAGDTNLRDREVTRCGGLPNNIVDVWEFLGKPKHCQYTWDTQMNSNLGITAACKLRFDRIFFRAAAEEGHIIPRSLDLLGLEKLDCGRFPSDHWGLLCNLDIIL
# Intestinal-type alkaline phosphatase (Mus musculus, UniProt P24822), sequence (P24822 whole entry): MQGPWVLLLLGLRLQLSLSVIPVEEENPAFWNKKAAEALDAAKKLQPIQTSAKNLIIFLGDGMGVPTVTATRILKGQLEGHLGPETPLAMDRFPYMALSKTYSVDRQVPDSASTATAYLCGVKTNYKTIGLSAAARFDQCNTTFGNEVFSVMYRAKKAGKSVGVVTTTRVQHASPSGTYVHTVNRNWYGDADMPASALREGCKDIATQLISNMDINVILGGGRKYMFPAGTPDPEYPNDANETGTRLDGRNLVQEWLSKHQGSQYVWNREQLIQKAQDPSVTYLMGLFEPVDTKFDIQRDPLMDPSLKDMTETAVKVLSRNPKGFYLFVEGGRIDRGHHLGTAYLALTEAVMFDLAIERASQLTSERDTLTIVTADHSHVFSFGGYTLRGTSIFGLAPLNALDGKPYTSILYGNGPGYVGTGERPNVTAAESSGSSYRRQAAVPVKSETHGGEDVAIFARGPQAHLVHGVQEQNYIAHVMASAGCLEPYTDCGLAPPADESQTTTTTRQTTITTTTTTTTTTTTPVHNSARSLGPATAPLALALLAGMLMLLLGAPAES
# ORF 73, sequence (O40947 whole entry): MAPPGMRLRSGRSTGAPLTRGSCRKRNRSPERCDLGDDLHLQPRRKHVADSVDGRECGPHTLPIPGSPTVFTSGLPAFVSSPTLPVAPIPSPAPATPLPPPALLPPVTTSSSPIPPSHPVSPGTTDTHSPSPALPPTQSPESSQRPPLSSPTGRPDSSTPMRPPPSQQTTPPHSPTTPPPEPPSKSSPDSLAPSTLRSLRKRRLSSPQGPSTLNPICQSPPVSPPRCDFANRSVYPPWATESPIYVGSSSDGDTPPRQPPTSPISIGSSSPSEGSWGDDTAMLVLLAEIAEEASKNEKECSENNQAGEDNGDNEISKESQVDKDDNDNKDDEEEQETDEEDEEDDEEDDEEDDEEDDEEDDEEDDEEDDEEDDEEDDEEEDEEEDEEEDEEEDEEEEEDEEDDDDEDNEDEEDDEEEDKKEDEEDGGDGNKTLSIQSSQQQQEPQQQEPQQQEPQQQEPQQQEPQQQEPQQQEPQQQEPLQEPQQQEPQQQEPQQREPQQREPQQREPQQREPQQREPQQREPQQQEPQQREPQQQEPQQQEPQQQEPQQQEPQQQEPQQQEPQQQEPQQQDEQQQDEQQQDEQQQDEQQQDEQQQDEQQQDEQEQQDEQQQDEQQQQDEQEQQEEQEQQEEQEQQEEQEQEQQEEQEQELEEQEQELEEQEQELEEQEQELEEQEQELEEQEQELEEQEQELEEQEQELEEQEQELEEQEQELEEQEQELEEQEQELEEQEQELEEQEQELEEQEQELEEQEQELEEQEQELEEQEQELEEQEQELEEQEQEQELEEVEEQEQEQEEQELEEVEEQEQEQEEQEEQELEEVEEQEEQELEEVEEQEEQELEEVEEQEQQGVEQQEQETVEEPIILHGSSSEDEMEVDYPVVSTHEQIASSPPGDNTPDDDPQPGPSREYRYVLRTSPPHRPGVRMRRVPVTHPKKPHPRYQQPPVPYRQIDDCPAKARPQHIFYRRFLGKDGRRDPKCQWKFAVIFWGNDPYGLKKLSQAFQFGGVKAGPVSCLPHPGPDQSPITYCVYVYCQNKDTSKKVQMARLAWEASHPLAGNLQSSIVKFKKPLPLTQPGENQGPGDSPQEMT
# Histone-lysine N-methyltransferase NSD2, sequence (O96028 whole entry): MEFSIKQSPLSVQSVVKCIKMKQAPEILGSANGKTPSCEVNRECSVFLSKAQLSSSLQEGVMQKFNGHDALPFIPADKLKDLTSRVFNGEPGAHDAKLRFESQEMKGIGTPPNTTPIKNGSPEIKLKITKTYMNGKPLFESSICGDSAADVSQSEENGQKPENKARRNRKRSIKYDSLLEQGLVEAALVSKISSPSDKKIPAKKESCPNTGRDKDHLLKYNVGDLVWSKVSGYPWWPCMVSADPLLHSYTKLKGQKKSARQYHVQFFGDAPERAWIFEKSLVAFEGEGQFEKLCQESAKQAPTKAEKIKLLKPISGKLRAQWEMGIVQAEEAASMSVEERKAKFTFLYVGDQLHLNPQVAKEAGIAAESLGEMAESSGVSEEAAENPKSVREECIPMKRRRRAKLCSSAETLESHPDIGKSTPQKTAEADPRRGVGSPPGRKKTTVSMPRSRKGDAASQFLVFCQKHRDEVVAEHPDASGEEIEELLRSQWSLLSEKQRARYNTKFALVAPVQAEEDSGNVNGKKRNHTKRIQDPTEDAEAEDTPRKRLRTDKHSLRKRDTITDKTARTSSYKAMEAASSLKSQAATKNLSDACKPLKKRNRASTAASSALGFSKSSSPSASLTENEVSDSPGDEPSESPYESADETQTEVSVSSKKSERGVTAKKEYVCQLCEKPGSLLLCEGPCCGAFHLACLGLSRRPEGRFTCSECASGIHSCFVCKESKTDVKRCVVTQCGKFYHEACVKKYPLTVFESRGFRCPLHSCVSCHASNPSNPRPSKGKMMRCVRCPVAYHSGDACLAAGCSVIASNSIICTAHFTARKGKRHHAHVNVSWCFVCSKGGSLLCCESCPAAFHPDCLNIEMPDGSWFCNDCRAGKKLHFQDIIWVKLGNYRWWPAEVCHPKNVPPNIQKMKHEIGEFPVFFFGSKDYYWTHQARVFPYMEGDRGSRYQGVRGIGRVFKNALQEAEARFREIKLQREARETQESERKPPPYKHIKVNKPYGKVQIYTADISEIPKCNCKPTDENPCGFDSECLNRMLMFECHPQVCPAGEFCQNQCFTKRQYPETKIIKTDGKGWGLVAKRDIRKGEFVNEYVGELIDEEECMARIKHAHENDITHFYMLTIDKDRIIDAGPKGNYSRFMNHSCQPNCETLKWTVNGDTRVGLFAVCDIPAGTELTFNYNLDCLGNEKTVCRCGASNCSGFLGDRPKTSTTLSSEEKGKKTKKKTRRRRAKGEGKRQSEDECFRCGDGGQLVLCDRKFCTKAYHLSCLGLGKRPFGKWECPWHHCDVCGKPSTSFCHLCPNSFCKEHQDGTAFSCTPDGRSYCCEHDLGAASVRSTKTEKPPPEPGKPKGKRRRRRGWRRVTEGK
# Caspase-6, sequence (P55212 24-179 limits assumed): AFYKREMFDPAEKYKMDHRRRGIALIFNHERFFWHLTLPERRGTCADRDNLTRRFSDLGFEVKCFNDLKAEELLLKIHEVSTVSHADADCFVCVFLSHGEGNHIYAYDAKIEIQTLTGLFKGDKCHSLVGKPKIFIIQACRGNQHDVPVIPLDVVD
# Caspase-6, sequence (P55212 194-293 limits assumed): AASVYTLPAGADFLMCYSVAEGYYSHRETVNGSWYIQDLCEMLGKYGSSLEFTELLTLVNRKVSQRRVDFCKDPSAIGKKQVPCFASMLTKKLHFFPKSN
# Intestinal-type alkaline phosphatase (Homo sapiens, UniProt P09923), sequence (P09923 whole entry): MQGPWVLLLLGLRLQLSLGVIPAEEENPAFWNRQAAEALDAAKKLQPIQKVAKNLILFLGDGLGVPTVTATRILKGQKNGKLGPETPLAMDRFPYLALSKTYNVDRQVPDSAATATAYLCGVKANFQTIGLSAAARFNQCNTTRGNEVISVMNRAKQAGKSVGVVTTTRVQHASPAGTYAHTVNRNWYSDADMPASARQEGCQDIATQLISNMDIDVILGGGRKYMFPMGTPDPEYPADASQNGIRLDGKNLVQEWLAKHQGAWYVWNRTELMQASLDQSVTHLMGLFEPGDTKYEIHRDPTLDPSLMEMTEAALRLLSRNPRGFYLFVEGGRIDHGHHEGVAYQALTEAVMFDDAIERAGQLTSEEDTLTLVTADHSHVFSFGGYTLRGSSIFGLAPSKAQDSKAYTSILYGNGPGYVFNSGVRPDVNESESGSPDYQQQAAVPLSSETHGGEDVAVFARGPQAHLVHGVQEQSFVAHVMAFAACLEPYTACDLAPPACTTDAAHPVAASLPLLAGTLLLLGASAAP
# Induced myeloid leukemia cell differentiation protein Mcl-1, sequence (Q07820 whole entry): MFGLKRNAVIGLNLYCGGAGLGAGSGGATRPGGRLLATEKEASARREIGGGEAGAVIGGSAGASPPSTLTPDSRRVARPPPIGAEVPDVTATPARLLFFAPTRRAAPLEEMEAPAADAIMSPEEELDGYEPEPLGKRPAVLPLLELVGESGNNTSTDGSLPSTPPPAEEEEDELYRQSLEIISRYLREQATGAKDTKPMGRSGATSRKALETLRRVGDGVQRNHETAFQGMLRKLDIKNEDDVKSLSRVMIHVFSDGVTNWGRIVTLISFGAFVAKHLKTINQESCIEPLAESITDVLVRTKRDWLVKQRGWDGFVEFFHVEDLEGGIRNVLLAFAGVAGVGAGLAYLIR
smiles,measurement,setting,value
O=C(O)CCc1ccc(-c2ccc(Br)cc2)n1CC(=O)O,AC50,Caspase-6,3.5 µM (active)
same,AC50,Caspase-7,> 70 µM (inactive)
CCn1c(CNC(=O)c2cc(OC)c(OC)c(OC)c2)cc2cc(C)ccc21,AC50,[1],13.4 µM (active)
same,AC50,[2],3.79 µM (active)
same,AC50,[3],2.52 µM (active)
same,AC50,[4],> 70 µM (inactive)
O=C(O)CCCN1C(=O)/C(=C/C=C/c2ccco2)SC1=S,IC50,[5],39.1 µM (active)
same,AC50,ORF 73,175 µM (active)
same,IC50,[6],> 100 µM (inactive)
same,IC50,[7],> 122 µM (inactive)
same,AC50,[8],2.42 µM (active)
same,IC50,[9],19.3 µM (not active)
same,IC50,[10],> 122 µM (inactive)
same,IC50,[11],1.4 µM (active)
Cc1ccc(C(C[N+](=O)[O-])c2c(C)[nH]n(-c3ccccc3)c2=O)cc1 (stereo not given),IC50,[12],24.2 µM (inactive)
same,EC50,Protein RecA,3.16 µM (active)
same,IC50,[13],24.1 µM (active)
same,AC50,[14],3.52 µM (active)
C=CCNC1=C(NCCCN2CCOCC2)C(=O)c2ccccc2C1=O,AC50,[15],> 70 µM (inactive)
CC(C)(O)C#Cc1cccc(-c2nc(C(=O)NCc3ccc4c(c3)OCO4)cc3c2[C@@H](CCO)N([S+]([O-])C(C)(C)C)C3)c1 (stereo not given in full),AC50,[16],12.1 µM (active)
same,AC50,[17],3.93 µM (active)
C[C@@H]1CN([C@H](C)CO)S(=O)(=O)c2ccc(C#Cc3cccc(F)c3)cc2O[C@@H]1CN(C)S(=O)(=O)c1cn(C)cn1,AC50,[18],3.47 µM (active)
O=C(CCNC(=O)c1ccc(Cl)cc1)N[C@@H]1CCCc2ccccc21,AC50,[19],4.12 µM (active)
same,AC50,[20],> 52 µM (inactive)
O=C(O)[C@H]1CCCC[C@H]1C(=O)NC(CN1C(=O)c2ccccc2C1=O)c1ccccc1 (stereo not given in full),AC50,[21],> 52 µM (inactive)
